# In patent US8133888B2, “Hydrazide containing taxane conjugates” (Sun Pharma Advanced Research Company Ltd., priority 2008, dated 2012):
# Columns and labels:
# [1] = Solubility of the taxane conjugates in water with added acid (visual clarity); format: physicochemical; details: 2 mg dispersed in 0.5 ml water, sonicated, 20 μl of 2.5M HCl added, sonicated about 2 min
# Description: About 2 mg of the taxane conjugate of formula I was dispersed in 0.5 ml water (sterile) and sonicated for about 2 min. Small aliquots of a pharmaceutically accepted acid was added, sonicated for 2-3 min after each addition and observed for visual clarity.
# For example, 2 mg of compound I.03 was dispersed in 0.5 ml water and sonicated for about 2 min.
# [2] = Conversion of compound of formula I to the active taxane compound in human plasma (LC-MS/MS); format: in vitro ADME; details: 37° C.; for Peak Area of test compound / % Unconverted Compound I.04: human plasma; for Peak Area of docetaxel formed: docetaxel released from compound I.04 in human plasma
# Description: The conversion of the test compound I.04 of the present invention to the active/parent taxane compound was determined in the human plasma sample. The test compound of 2000 ng per nil concentration was added to human plasma at ambient temperature and was kept in an incubator maintained at 37° C. Aliquots of this plasma sample were taken at definite time intervals and subjected to LC-MS/MS analysis. The samples were analyzed for amount of unconverted test compound and the amount of docetaxel formed in the test solution using LC-MS/MS operating in selected reaction monitoring (SRM) mode, as per follows: • Column: Hypurity Aquastar C-18, 50×2.1 mm, 3 micron • Mobile Phase: 10 mmol ammonium acetate-acetonitrile, 40:60 • Flow Rate: 250 μl/min • Oven Temperature: 45° C. • Retention time of compound I.04: 13.9 min • Retention time of docetaxel: 0.79 min
# The parent ions>product ions monitored were the following: […]
# [3] = cited from earlier work
smiles,measurement,setting,value
"CC(=O)O[C@@]12CO[C@@H]1C[C@H](OC(=O)CCC(=O)NN1CCCCC1)[C@@]1(C)C(=O)[C@H](O)C3=C(C)[C@@H](OC(=O)[C@H](OC(=O)CCC(=O)NN4CCCCC4)[C@@H](NC(=O)OC(C)(C)C)c4ccccc4)C[C@@](O)([C@@H](OC(=O)c4ccccc4)[C@H]21)C3(C)C [Compound I.03, 10-Deacetyl-N-debenzoyl-N-(tert-butyloxycarbonyl)-2′,7-bis[(N-piperidin-1-yl)succinamidoyl]taxol]","Solubility, visual clarity",[1],clear solution
"CC(=O)O[C@@]12CO[C@@H]1C[C@H](O)[C@@]1(C)C(=O)[C@H](O)C3=C(C)[C@@H](OC(=O)[C@H](OC(=O)CCC(=O)NN4CCCCC4)[C@@H](NC(=O)OC(C)(C)C)c4ccccc4)C[C@@](O)([C@@H](OC(=O)c4ccccc4)[C@H]21)C3(C)C [Compound I.04, 10-Deacetyl-N-debenzoyl-N-(tert-butyloxycarbonyl)-2′-[(N-piperidin-1-yl)-succinamidoyl]taxol]",Peak Area of test compound,[2]; time 0 hrs,24696932.5 counts
same,% Unconverted Compound I.04,[2]; time 0.0 hrs,100%
same,% Unconverted Compound I.04,[2]; time 0.5 hrs,59.1%
same,Peak Area of test compound,[2]; time 0.5 hrs,19303514.4 counts
same,Peak Area of test compound,[2]; time 1 hrs,16791382.3 counts
same,% Unconverted Compound I.04,[2]; time 1.0 hrs,40.3%
same,Peak Area of test compound,[2]; time 2 hrs,11789443.5 counts
same,% Unconverted Compound I.04,[2]; time 2.0 hrs,4.7%
same,Peak Area of test compound,[2]; time 3 hrs,6259891.0 counts
same,Peak Area of test compound,[2]; time 4 hrs,3007853.1 counts
same,% Unconverted Compound I.04,[2]; time 4.0 hrs,0.1%
same,Peak Area of test compound,[2]; time 6 hrs,904115.8 counts
"CC(=O)O[C@@]12CO[C@@H]1C[C@H](O)[C@@]1(C)C(=O)[C@H](O)C3=C(C)[C@@H](OC(=O)[C@H](O)[C@@H](NC(=O)OC(C)(C)C)c4ccccc4)C[C@@](O)([C@@H](OC(=O)c4ccccc4)[C@H]21)C3(C)C [Docetaxel, docetaxel, reference compound]",Solubility in water,[3],< 0.05 mg/mL
same,Peak Area of docetaxel formed,[2]; time 0 hrs,10447.0 counts
same,Peak Area of docetaxel formed,[2]; time 0.5 hrs,70713.8 counts
same,Peak Area of docetaxel formed,[2]; time 1 hrs,125083.0 counts
same,Peak Area of docetaxel formed,[2]; time 2 hrs,243846.6 counts
same,Peak Area of docetaxel formed,[2]; time 3 hrs,331134.0 counts
same,Peak Area of docetaxel formed,[2]; time 4 hrs,464924.3 counts
same,Peak Area of docetaxel formed,[2]; time 6 hrs,546298.2 counts
same,"Solubility, visual clarity",[1],completely insoluble
CC(=O)O[C@H]1C(=O)[C@@]2(C)[C@H]([C@H](OC(=O)c3ccccc3)[C@]3(O)C[C@H](OC(=O)[C@H](O)[C@@H](NC(=O)c4ccccc4)c4ccccc4)C(C)=C1C3(C)C)[C@]1(OC(C)=O)CO[C@@H]1C[C@@H]2O [paclitaxel],Solubility in water (in words),[3],poorly soluble in water
same,"Solubility, visual clarity",[1],completely insoluble
